{"source": "patent US20250228824A1", "about": "“COMPOSITIONS AND METHODS FOR INHIBITION OF ITO AS TREATMENT FOR THE J WAVE SYNDROMES AND HYPOTHERMIA” (Lankenau Institute for Medical Research, priority 2021, published 2025)", "format_in_all_cases": "cell-based", "key": {"Nav1.5": {"molecular_target": "T1, Nav1.5 (Homo sapiens, UniProt Q14524)", "T1 construct": "expressed in transfected cells; host or cells: HEK cells, transfected with Lipofectamine 2000", "T1 sequence (Q14524 whole entry)": "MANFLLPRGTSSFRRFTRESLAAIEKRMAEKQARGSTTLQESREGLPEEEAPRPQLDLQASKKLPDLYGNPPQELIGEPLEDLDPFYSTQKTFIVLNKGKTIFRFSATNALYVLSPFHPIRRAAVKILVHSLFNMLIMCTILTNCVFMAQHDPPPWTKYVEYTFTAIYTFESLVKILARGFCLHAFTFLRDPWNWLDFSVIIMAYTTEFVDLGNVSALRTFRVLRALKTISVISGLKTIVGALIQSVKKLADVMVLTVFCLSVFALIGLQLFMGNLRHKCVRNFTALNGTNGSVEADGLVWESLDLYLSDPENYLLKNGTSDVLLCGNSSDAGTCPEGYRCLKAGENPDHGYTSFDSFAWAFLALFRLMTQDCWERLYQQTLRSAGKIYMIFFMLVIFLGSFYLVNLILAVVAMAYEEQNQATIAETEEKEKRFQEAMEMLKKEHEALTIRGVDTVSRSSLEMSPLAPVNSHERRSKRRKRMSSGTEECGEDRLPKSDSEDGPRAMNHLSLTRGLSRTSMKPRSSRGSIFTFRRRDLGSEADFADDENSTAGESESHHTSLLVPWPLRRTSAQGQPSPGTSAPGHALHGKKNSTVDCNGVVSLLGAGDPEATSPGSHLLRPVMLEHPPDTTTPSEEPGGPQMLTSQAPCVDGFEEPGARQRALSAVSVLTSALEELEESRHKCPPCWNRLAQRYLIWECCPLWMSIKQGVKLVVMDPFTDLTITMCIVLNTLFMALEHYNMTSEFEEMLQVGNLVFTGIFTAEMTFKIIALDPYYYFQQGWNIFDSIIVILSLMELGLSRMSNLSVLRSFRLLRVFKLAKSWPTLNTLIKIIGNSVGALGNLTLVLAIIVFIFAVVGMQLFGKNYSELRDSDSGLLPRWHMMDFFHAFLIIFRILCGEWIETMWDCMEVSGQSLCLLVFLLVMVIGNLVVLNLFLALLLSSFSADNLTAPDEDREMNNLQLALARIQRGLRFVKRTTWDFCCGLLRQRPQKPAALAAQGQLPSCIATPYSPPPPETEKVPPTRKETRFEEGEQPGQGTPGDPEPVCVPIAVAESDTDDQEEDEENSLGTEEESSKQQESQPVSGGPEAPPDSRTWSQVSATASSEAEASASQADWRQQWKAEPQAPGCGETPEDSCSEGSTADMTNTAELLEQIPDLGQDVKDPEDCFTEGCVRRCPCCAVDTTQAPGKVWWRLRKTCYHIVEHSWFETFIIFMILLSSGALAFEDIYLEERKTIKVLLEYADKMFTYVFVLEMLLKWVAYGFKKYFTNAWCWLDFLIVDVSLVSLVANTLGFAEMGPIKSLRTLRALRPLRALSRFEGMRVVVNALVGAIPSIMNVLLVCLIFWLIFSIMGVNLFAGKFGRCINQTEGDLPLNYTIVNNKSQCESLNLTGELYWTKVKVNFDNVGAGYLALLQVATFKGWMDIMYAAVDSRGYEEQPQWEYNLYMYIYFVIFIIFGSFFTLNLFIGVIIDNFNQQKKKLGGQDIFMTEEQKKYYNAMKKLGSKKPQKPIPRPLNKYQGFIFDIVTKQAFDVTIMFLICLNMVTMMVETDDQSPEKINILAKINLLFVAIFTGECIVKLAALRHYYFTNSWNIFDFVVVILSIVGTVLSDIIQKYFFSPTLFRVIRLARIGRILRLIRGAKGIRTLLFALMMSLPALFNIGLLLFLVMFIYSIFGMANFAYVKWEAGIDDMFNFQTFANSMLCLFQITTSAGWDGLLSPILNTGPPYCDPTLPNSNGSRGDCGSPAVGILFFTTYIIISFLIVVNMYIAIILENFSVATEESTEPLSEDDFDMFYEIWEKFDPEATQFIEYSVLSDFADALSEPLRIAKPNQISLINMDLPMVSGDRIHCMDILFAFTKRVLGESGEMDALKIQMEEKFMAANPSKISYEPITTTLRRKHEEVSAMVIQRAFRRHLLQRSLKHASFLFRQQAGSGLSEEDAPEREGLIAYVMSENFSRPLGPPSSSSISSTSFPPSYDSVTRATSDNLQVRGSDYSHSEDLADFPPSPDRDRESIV", "T1 sequence (Q07699 19-218 partner)": "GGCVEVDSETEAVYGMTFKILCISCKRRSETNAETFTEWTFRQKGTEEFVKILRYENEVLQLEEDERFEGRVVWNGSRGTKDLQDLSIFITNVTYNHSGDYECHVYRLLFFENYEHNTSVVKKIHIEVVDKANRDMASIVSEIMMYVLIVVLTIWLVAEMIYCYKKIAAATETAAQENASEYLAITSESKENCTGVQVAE", "test": "Automated patch clamp (Qube-384) of INa in HEK cells transfected with SCN5A+SCN1B", "procedure": "(§1) HEK cells transiently transfected with wild-type SCN5A (α subunit—Nav1.5) together with SCN1B (β1 subunit) using Lipofectamine 2000 were used to assess the effect of AR-787 on the cardiac sodium channel current (INa). All cells were incubated at 37° C./5% CO2. All cell culture reagents were purchased from Thermo Fisher Scientific (Waltham, MA).\n(§2) The effect of AR-787 on cardiac sodium channel current was evaluated in HEK cells co-transfected with SCN5A and SCN1B. INa was measured in the whole-cell configuration using a Qube-384 (Sophion A/S, Copenhagen, Denmark) automated voltage clamp system. A flipped Na^+ gradient was used where the extracellular solution contained (in mM): 125 choline chloride, 1 NaCl, 5 KCl, 2 CaCl2, 1 MgCl2, 10 HEPES/NaOH, pH 7.4 (adjusted with NaOH), and the intracellular solution contained (in mM): 115 NaF, 15 CsCl2, 5 CsF, 3 Na2ATP, 0.3 Na2GTP, 2 MgCl2, 0.1 CaCl2, 10 EGTA, and 10 HEPES/CsOH, pH 7.2 (adjusted with NaOH). The currents were low-pass-filtered at 5 kHz and recorded at 25 kHz sampling frequency. Series resistance compensation was applied at 100%, and leak subtraction was enabled. Experiments were performed at room temperature (27° C.). Appropriate filters for cell membrane resistance (typically >500 MΩ), series resistance (<10 MΩ), and Nav current magnitude (>500 pA at a test pulse from a resting holding potential of −120 mV) were routinely applied to exclude poor quality cells. Vehicle (0.5% DMSO) controls were run on each plate to enable correction for any compound independent decrease of currents over time.\n(§3) We used a double voltage-pulse protocol designed specifically to assess whether the compound is a potentiator, inhibitor, or both. The protocol assesses these parameters at both rest and partially inactivated holding potentials. Currents were assessed by a test pulse of 0 mV from a holding potential at rest (−120 mV) before preconditioning channels to their appropriate mid-potential (V1/2) values (NaV1.5 V1/2=−90 mV) for 10 s. Peak current, time constant of inactivation (τ inactivation) and persistent current were measured.\n(§4) Time constants (τ) for fast inactivation onset were derived by fitting a single exponential function to the decay of current obtained from the depolarizing test pulse following a holding potential of −120 mV.\n(§5) where I is current amplitude, Iss is the plateau amplitude, α is the amplitude at time 0 for time constant τ, and t is time. Persistent sodium current was measured during a 10 ms test pulse from −120 mV to 0 mV. It was calculated as a percentage of peak sodium current at 5 ms."}, "Nav1.5 (peak INa)": {"molecular_target": "T2, Nav1.5 (peak INa) (Homo sapiens, UniProt Q14524)", "T2 construct": "expressed in transfected cells; host or cells: HEK cells, transfected with Lipofectamine 2000", "test": "Automated patch clamp (Qube-384) of INa in HEK cells transfected with SCN5A+SCN1B", "conditions": "human, pH 7.4; 50 μM; holding potential −90 mV", "procedure": "as §1, §2, §3, §4, §5"}, "KV11.1 (hERG-IKr)": {"molecular_target": "T3, KV11.1 (hERG-IKr) (Homo sapiens, UniProt Q12809)", "T3 construct": "stably expressing hERG channels (NM_000238); expressed in transfected cells", "T3 sequence (Q12809 whole entry)": "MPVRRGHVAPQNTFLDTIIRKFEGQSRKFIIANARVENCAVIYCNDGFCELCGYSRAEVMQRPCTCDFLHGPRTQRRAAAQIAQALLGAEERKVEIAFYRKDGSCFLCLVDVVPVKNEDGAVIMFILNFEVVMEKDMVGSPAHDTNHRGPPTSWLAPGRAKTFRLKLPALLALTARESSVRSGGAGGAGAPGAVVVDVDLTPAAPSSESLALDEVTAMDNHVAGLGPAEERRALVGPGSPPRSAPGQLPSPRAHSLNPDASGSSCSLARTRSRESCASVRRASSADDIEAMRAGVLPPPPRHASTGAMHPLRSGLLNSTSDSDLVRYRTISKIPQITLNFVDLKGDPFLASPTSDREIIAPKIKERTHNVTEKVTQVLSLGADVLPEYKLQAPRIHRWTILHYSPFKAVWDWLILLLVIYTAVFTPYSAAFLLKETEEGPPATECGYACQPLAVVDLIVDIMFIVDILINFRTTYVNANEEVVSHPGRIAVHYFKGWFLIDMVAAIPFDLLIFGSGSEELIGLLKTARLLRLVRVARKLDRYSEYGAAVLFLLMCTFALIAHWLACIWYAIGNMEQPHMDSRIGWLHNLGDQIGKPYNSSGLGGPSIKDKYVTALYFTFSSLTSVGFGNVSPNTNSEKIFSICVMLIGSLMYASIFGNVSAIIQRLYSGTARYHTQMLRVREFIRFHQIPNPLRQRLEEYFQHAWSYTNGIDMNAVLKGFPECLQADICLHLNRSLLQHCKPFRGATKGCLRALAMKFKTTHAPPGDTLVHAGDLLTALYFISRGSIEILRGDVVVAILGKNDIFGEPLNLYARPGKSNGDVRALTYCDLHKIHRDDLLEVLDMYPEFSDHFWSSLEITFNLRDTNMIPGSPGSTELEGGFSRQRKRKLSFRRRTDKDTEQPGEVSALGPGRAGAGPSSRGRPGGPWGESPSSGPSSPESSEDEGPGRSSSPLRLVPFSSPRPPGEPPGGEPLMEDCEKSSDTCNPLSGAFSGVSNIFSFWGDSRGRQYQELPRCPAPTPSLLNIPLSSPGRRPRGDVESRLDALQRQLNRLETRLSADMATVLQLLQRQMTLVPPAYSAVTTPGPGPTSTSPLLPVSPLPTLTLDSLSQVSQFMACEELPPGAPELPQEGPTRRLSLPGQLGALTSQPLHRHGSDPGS", "test": "Whole-cell patch clamp of IKr in HEK cells stably expressing hERG", "conditions": "50 μM", "procedure": "Human Embryonic Kidney (HEK) cells stably expressing hERG channels (NM_000238) were used to evaluate the effect of AR-787 on IKr. The HEK cells were cultured in vented flasks using standard methods. The culture media consisted of MEM α-modified, 10% FBS, 1% L-glutamine, 1% pen-strep and 0.4% G418 (Geneticin). Cells were passaged at 50% confluence.\nFor electrophysiological study, cells were released from culture with trypsin, rinsed with Ca^2+-free external solution and maintained on ice until used (up to 4 hr). An aliquot of cells was place in a chamber on an inverted microscope (Nikon Diaphot) and perfused with external solution at a rate of 1 ml/min at room temperature. The external solution contained in (mM): 140 NaCl, 5 KCl, 2 CaCl2, 1 MgCl2, 10 HEPES and 10 glucose at pH 7.4 (adjusted with NaOH). Membrane currents recorded with an Axopatch 200B amplifier controlled by Clampex software were digitized at a sampling rate of 10 kHz and filtered at 2 kHz. Micropipettes were fabricated from borosilicate glass and generally had resistances of 1.8-2.4 MΩ when filled with internal solution consisting of (mM): 140 KCl, 1 MgCl2, 5 Na2ATP, 10 HEPES and 10 EGTA (pH 7.3 adjusted with KOH; 300 mOsm). Pipette offset and stray capacitance were compensated with the pipette in the bath solution before seal formation. After achieving cell access, whole-cell capacitance and series resistance were compensated optimally. Series resistance prediction and correction were usually adjusted to 85% or higher leaving an uncompensated series resistance of less than 1 MΩ and voltage errors estimated to be less than 5 mV. Voltage protocols and currents were recorded on a computer for offline analysis using Clampfit and GraphPad software.\nIKr was measured using a two-step protocol. Voltage steps of 4 sec duration were applied at 20 sec intervals from a holding potential of −80 mV to −60 to +40 mV in 10 mV steps, followed by a 4 sec step to −50 mV to record the tail currents. […] The step protocol consisted of a voltage step from a holding potential of −80 mV to a test potential of +10 mV for 4 sec then to −50 mV for 4 second. It was repeated at 20 sec intervals. The step protocol was maintained until the current response achieved a stable level (5-7 min). The I-V protocol was then repeated.\nFor analysis, the following were determined: 1) currents averaged over the last 100 ms of the first voltage clamp step (−60 to +40 mV) and 2) peak tail current during the second voltage clamp step (at −50 mV). These were divided by cell capacitance to normalize for cell size (pA/pF). The time course of tail current […] was fit with a single exponential function using Clampfit. The voltage dependence of activation was determined from tail currents by dividing current value at each voltage by the maximum value for each I-V protocol. Values of current were averaged among cells and expressed as a mean ±SEM."}, "[1]": {"conditions": "50 μM, holding potential −120 mV"}, "[2]": {"conditions": "50 μM, mid-voltage holding potential (NaV1.5 V1/2 = −90 mV)"}}}
{"compound": "Cc1nc(-n2cccc2)sc1C(=O)N=c1[nH]c2ccccc2[nH]1", "note": "[AR-787, N-(1H-benzimidazol-2-yl)-4-methyl-2-pyrrol-1-yl-thiazole-5-carboxamide]", "values": [{"measurement": "Normalized AUC", "setting": "Nav1.5; 50 μM", "value": "1.03 ± 0.06"}, {"measurement": "reduction of INa", "setting": "Nav1.5; 50 μM, 0 mV test pulse from holding potential −120 mV", "value": "~32", "unit": "%"}, {"measurement": "deceleration of fast inactivation kinetics", "setting": "Nav1.5; 50 μM, holding potential −90 mV", "value": "this effect was abolished"}, {"measurement": "Normalized Inhibition (−120 mV)", "setting": "Nav1.5; [1]", "value": "0.32 ± 0.03"}, {"measurement": "Normalized τinactivation (−120 mV)", "setting": "Nav1.5; [1]", "value": "1.45 ± 0.07"}, {"measurement": "deceleration of fast inactivation kinetics", "setting": "Nav1.5; [1]", "value": "~1.5", "unit": "fold"}, {"measurement": "Normalized Inhibition (−65 mV and −90 mV)", "setting": "Nav1.5; [2]", "value": "0.78 ± 0.02"}, {"measurement": "Normalized τinactivation (−65 mV and −90 mV)", "setting": "Nav1.5; [2]", "value": "1.11 ± 0.10"}, {"measurement": "Normalized Persistent Current (5 ms)", "setting": "Nav1.5; 50 μM, percentage of peak sodium current at 5 ms, from −120 mV to 0 mV", "value": "10.44 ± 3.30"}, {"measurement": "increase of late INa (persistent sodium current, percent of peak current)", "setting": "Nav1.5; at 5 ms of a 10 ms depolarization to 0 mV from −120 mV", "value": "~10", "unit": "%"}, {"measurement": "inhibition at 50 µM", "setting": "Nav1.5 (peak INa)", "value": 80, "unit": "%"}, {"measurement": "amplitude of the developing IKr", "setting": "KV11.1 (hERG-IKr)", "value": "enhanced between −60 to −20 mV and reduced above 0 mV"}, {"measurement": "rates of inactivation of IKr tail currents", "setting": "KV11.1 (hERG-IKr)", "value": "significantly slowed at positive voltages"}, {"measurement": "reduction in IKr peak tail current", "setting": "KV11.1 (hERG-IKr)", "value": 50, "unit": "%"}, {"measurement": "shift in the voltage dependence of both developing and tail currents (IKr)", "setting": "KV11.1 (hERG-IKr)", "value": "−20", "unit": "mV"}, {"measurement": "shift of voltage-dependence of activation (IKr)", "setting": "KV11.1 (hERG-IKr)", "value": "−25", "unit": "mV"}]}
